Where two headings read alike, the source gives them in different places.

In data set [1] the test system is HIV. The conditions noted are these: lopinavir plus efavirenz and 2 NRTIs, cited from earlier work.
Data set [2] can be described thus: Amprenavir plasma trough concentration by LC-MS/MS in treatment-experienced patients. The conditions noted are these: human, in vivo; median; 12 hours after dosing; amprenavir 1200 mg bid with ritonavir or nelfinavir; 17 patients; read-out: Cmin. As for the experimental part: Patients were enrolled into three parallel treatment groups that included abacavir 300 mg bid, amprenavir 1200 mg bid, and efavirenz 600 mg daily with either low dose ritonavir at 200 mg BID, high dose ritonavir at 500 mg bid, or nelfinavir 1250 mg bid.
Genotyping (VircoGEN II™, VIRCO) and VIRTUAL PHENOTYPE™ were performed on baseline samples. Viral load data were collected at baseline (mean of two pre-therapy samples) and at week 24. Serial pharmacokinetic samples were collected over 12 hours after week 3 for ritonavir-boosted regimens and after week 2 for nelfinavir-boosted regimens.
Amprenavir concentrations in plasma were determined by a validated LC-MS/MS method.
For amprenavir, nelfinavir, and ritonavir, the concentration 12 hours after dosing was used as the Cmin. For each drug, relationships between viral load change at week 24 and the Cmin, fold-change in resistance, and NIQ were fit to a sigmoidal maximum effect model.

The subject of data set [3] is HIV-1. Kind of data set: NIQ as predictor of virologic outcome at week 24. The format is in vivo, human (patients).
Method: The normalized inhibitory quotient (NIQ) was determined as: [formula]
Where the IQ in an individual patient (IQpatient) was calculated as ratio of the patient's trough concentration (Cmin) to the susceptibility of the patient's virus to the drug, expressed as fold change compared to wild type virus (Virtual Phenotype). The IQpt was then related to the reference inhibitory quotient (IQref), in which the mean population trough concentration of the drug from the product label was divided by the cut-off value of the fold change for susceptible viruses.
For amprenavir, nelfinavir, and ritonavir, the concentration 12 hours after dosing was used as the Cmin. […]

With `Cc1cccc(C)c1OCC(=O)N[C@@H](Cc1ccccc1)[C@@H](O)C[C@H](Cc1ccccc1)NC(=O)[C@H](C(C)C)N1CCCNC1=O` [lopinavir], the “% of patients with viral load below 400 copies/mL at week 24” value in data set [1] (lopinavir IQ 4-15) is on record as 80%; in data set [1] (lopinavir IQ <4), 70%; in data set [1] (lopinavir IQ >15) it was 100%.
With `CC(C)CN(C[C@@H](O)[C@H](Cc1ccccc1)NC(=O)O[C@H]1CCOC1)S(=O)(=O)c1ccc(N)cc1` [Amprenavir, amprenavir], the concentration at 12 h in data set [2] turned out to be 1270 ng/mL. Moreover, the figures for the “patients with decrease in viral load to <400 copies/ml at week 24” value in data set [3] (patients achieving NIQ>3.0) and in data set [3] (patients with NIQ<3.0) were 7/8 and 1/9, respectively.

The values are drawn from patent US20080008991A1, “SYSTEM AND METHOD FOR OPTIMIZING DRUG THERAPY FOR THE TREATMENT OF DISEASES” (priority 2000, published 2008).
